The values below come from paper PMC12155096 (International Journal of Molecular Sciences, 2025).

Data set [1] has as its target Photinus pyralis (firefly) luciferase (Photinus pyralis, UniProt P08659). Kind of data set: biochemical. In kind it is biochemical.
Data set [2] addresses T1, human CYP1A2 (Homo sapiens, UniProt P05177).
T1 sequence (P05177 1-516): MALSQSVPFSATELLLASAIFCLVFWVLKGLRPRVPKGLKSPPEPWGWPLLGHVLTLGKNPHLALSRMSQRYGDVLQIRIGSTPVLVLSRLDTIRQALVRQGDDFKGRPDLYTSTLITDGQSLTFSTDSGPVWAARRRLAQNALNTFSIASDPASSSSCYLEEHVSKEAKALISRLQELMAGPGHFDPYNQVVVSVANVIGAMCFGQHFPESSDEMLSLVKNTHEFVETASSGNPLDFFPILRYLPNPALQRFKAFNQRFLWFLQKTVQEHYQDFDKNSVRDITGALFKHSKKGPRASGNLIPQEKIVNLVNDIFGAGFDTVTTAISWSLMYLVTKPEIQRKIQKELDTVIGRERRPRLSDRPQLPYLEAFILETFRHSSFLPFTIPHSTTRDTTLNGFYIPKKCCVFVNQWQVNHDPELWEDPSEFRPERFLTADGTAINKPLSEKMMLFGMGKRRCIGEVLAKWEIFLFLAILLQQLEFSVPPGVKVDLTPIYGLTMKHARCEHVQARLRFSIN
The experiment in a line: biochemical.

Data set [3] has as its target T2, human CYP2C9 (Homo sapiens, UniProt P11712). The experiment in a line: biochemical. The following applies: for AC50: CYP2C9 AC50 (half-maximal activity concentration).
The target of data set [4] is T3, human CYP2C19 (Homo sapiens, UniProt P33261). The experiment in a line: biochemical. The following applies: for AC50: CYP2C19 AC50 (half-maximal activity concentration).
T3 sequence (P33261 whole entry): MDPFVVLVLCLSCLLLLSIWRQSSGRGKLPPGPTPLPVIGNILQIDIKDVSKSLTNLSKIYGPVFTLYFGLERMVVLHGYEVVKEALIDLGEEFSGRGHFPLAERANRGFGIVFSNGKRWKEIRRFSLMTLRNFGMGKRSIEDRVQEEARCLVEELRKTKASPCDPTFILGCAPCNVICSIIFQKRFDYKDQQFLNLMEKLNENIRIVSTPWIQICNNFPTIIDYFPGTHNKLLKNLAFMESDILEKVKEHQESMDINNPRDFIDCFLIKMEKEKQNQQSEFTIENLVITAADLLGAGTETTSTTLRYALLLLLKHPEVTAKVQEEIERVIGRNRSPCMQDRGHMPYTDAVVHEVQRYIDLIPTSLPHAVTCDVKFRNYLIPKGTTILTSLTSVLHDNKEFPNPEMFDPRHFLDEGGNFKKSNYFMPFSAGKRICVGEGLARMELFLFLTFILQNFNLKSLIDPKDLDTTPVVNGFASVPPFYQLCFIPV
For another data set, the target named is human CYP2D6 (Homo sapiens, UniProt P10635). Kind of data set: biochemical.
Sequence of human CYP2D6 (P10635 whole entry): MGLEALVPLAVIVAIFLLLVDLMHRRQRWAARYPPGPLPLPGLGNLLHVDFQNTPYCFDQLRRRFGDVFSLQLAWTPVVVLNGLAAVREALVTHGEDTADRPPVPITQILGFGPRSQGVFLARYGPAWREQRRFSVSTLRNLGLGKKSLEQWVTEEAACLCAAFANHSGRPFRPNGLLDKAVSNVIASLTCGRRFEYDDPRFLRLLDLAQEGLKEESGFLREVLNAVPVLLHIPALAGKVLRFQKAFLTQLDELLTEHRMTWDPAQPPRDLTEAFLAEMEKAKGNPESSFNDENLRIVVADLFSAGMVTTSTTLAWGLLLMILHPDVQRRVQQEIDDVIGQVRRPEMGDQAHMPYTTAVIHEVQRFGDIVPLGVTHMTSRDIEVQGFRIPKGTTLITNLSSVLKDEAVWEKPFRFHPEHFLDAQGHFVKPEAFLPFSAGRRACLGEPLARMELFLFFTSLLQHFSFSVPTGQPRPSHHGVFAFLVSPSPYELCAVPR
For another data set, the target named is CYP3A4 (Homo sapiens, UniProt P08684). The experiment in a line: biochemical.
Sequence of CYP3A4 (P08684 whole entry): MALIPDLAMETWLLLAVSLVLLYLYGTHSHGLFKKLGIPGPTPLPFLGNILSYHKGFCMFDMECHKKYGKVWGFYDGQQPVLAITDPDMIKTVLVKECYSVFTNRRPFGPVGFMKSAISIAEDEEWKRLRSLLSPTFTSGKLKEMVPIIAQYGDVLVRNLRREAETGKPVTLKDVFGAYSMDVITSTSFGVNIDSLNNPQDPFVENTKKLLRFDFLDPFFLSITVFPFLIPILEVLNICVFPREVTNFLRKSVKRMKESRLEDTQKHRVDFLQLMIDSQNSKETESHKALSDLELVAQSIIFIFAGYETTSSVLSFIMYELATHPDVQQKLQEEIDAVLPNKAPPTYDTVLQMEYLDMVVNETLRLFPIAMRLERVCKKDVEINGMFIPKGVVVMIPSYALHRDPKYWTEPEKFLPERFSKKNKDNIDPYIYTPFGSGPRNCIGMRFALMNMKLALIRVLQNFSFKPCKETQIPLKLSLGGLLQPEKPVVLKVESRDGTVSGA
In data set [5] the target is T1, human CYP1A2.
The target in data set [6] is T2, human CYP2C9.
In data set [7] the target is T3, human CYP2C19.
The mark [8] stands for this setting: CYP1A2 IC50 (half-maximal inhibitory concentration).
The mark [9] stands for this setting: CYP2C9 IC50 (half-maximal inhibitory concentration).
[10] abbreviates: CYP2C19 IC50 (half-maximal inhibitory concentration).
Where [11] appears, read: CYP2D6 IC50 (half-maximal inhibitory concentration).
The mark [12] stands for this setting: CYP3A4 IC50 (half-maximal inhibitory concentration).
Where [13] appears, read: CYP1A2 AC50 (half-maximal activity concentration).
The mark [14] stands for this setting: CYP2D6 AC50 (half-maximal activity concentration).
Setting [15] is: CYP3A4 AC50 (half-maximal activity concentration).

Where a name gives a salt, the structure may show the parent alone. Read-outs that look alike come from different tables or passages of the source.

T2 sequence (P11712 whole entry): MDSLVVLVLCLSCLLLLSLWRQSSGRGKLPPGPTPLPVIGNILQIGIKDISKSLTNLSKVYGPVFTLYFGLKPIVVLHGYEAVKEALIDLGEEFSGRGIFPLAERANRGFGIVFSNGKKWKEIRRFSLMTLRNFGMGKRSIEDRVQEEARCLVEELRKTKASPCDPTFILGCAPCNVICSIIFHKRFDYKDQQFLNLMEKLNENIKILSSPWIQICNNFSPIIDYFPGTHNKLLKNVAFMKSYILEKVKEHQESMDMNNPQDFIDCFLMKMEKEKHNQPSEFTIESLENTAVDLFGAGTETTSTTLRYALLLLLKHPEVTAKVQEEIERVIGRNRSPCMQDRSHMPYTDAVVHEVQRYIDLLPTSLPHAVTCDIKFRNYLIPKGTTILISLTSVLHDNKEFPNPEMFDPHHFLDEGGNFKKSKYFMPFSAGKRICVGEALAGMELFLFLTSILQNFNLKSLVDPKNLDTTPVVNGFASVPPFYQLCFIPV
Sequence of Photinus pyralis (firefly) luciferase (P08659 whole entry): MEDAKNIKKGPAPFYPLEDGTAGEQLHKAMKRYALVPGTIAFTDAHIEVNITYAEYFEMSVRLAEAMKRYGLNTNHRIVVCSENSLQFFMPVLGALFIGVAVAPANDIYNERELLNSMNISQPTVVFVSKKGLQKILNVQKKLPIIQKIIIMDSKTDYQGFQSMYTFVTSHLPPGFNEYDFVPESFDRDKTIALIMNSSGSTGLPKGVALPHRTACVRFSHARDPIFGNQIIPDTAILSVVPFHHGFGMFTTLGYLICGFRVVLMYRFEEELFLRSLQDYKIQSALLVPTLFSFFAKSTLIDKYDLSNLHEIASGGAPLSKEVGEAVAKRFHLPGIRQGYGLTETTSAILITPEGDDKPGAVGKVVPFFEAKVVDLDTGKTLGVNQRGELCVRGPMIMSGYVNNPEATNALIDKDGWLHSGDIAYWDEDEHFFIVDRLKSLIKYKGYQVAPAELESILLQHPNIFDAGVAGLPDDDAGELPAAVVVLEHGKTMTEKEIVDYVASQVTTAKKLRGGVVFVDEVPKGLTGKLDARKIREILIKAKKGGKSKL

What is called IC50 is the concentration needed to halve the response being measured. As to `c1ccc2sc(SN(C3CCCCC3)C3CCCCC3)nc2c1`, the “Luciferase IC50” value in [1] is listed as “Inactive”. For the same compound, the half-maximal inhibitory concentration (IC50) at human CYP1A2 [2] (CYP1A2 IC50) turned out to be 32.9 µM; on human CYP2C9 [3] (CYP2C9 IC50), 8.95 µM; on human CYP2C19 [4] (CYP2C19 IC50), 15.6 µM; against human CYP2D6 (CYP2D6 IC50), 0.56 µM; against CYP3A4 (CYP3A4 IC50) it was 5.16 µM.

Take `Fc1ccc([C@]2(Cn3cncn3)O[C@H]2c2ccccc2Cl)cc1` (racemic) [Epoxiconazole]: the “Luciferase IC50 (half-maximal inhibitory concentration)” value in data set [1] is given as “Inactive”. The IC50 against human CYP1A2 [2] (setting [8]) is 3.92 µM; against human CYP2C9 [3] (setting [9]), 5.66 µM; at human CYP2C19 [4] (setting [10]), 0.34 µM; against human CYP2D6 (setting [11]), 37 µM; on CYP3A4 (setting [12]) it was 0.91 µM.

In the case of `CC(C)(C)[C@@H](O)[C@@H](Cc1ccc(Cl)cc1)n1cncn1` (racemic) [Paclobutrazol], the “Luciferase IC50 (half-maximal inhibitory concentration)” value in [1] is “Inactive”. In addition, the IC50 amounted to 74.8 µM at human CYP1A2 [2] (setting [8]); 12.1 µM at human CYP2C9 [3] (setting [9]); 0.33 µM against human CYP2C19 [4] (setting [10]); 36.8 µM on human CYP2D6 (setting [11]); 0.14 µM against CYP3A4 (setting [12]).

For `Cc1ccccc1NC(=N)Nc1ccccc1C` [1,3-Bis(2-methylphenyl)guanidine], in data set [1], the “Luciferase IC50” value is recorded as “Inactive”. In addition, the “CYP1A2 IC50” value at human CYP1A2 [5] was “Inactive”. Moreover, the IC50 at human CYP2C19 [4] (CYP2C19 IC50) was 1.11 µM; against human CYP2D6 (CYP2D6 IC50) it was 0.01 µM; against CYP3A4 (CYP3A4 IC50), 41 µM.

On to `Nc1ccc(N)c2c1C(=O)c1ccccc1C2=O` [1,4-Diaminoanthraquinone], for which the IC50 came out at 15.2 µM in data set [1]; 0.35 µM against human CYP1A2 [2] (setting [8]); 24.7 µM against human CYP2C19 [4] (setting [10]); 33 µM against human CYP2D6 (setting [11]); 5.17 µM on CYP3A4 (setting [12]).

As for `Cc1ccc2ccc3cccc4ccc1c2c34` [1-Methylpyrene], the IC50 amounted to 44.9 µM in data set [1]; 0.86 µM on human CYP1A2 [2] (CYP1A2 IC50); 55.4 µM at human CYP2C9 [3] (CYP2C9 IC50); 31.8 µM on human CYP2C19 [4] (CYP2C19 IC50); 55.4 µM against human CYP2D6 (CYP2D6 IC50); 30.5 µM at CYP3A4 (CYP3A4 IC50).

On to `Cc1cc(C)c(N)cc1C` [2,4,5-Trimethylaniline], for which the IC50 was 15.8 µM in data set [1]; 0.87 µM on human CYP1A2 [2] (CYP1A2 IC50); 0.79 µM on human CYP1A2 [2] (IC50 CYP1A2 assay); 32.9 µM at human CYP2C9 [3] (CYP2C9 IC50); 9.81 µM against human CYP2C19 [4] (CYP2C19 IC50); 38.1 µM against human CYP2D6 (CYP2D6 IC50). Further, at CYP3A4 (CYP3A4 IC50), the IC50 was 35.5 µM.

Broadly, the AC50 is the concentration at which the activity in the assay is half-maximal. Higher therefore signals activity only at high concentration. As for `Cc1cccc2sc(N)nc12` [2-Amino-4-methylbenzothiazole], at human CYP2C9 [6], the “CYP2C9 AC50 (half-maximal activity concentration)” value (from here on “CYP2C9 AC50”) is listed as “Inconclusive inhibitor”. Moreover, the AC50 on human CYP1A2 [2] (setting [13]) came out at 21.2 µM; at human CYP2C19 [4], 27.8 µM; on human CYP2D6 (setting [14]) it was 41.1 µM; at CYP3A4 (setting [15]) it was 11.8 µM.

In the case of `O=C1C(=O)c2cccc3cccc1c23` [Acenaphthenequinone], the “CYP2C9 AC50” value on human CYP2C9 [6] is “Inconclusive inhibitor”. The AC50 at human CYP1A2 [2] (setting [13]) was determined as 7.99 µM; at human CYP2C19 [4] it was 35.7 µM; on human CYP2D6 (setting [14]), 23.4 µM; on CYP3A4 (setting [15]) it was 23.7 µM.

As to `COc1ccc(C(O)(c2cncnc2)C2CC2)cc1` (stereo not drawn) [Ancymidol], the “Luciferase IC50 (half-maximal inhibitory concentration)” value in data set [1] is on record as “Inactive”. On human CYP1A2 [5], the “CYP1A2 IC50 (half-maximal inhibitory concentration)” value was “Inactive”. The IC50 against human CYP2C9 [3] (setting [9]) turned out to be 38.2 µM; against human CYP2C19 [4] (setting [10]), 19.3 µM; against human CYP2D6 (setting [11]), 47 µM; against CYP3A4 (setting [12]), 0.8 µM.

For `COc1cc(N)c(Cl)cc1C(=O)NC1CCN(Cc2ccccc2)CC1` [Clebopride maleate], the “Luciferase IC50 (half-maximal inhibitory concentration)” value in [1] is listed as “Inactive”. Moreover, the “CYP1A2 IC50 (half-maximal inhibitory concentration)” value at human CYP1A2 [5] is recorded as “Inactive”. In addition, the “CYP2C9 IC50 (half-maximal inhibitory concentration)” value on human CYP2C9 [6] is “Inactive”. Besides, the IC50 at human CYP2C19 [4] was 38.9 µM; at human CYP2D6, 0.03 µM; against CYP3A4 it was 2.06 ± 0.47 µM.

`COC(=O)N(C(=O)N1CO[C@@]2(C(=O)OC)Cc3cc(Cl)ccc3C2=N1)c1ccc(OC(F)(F)F)cc1` [Indoxacarb]: the “Luciferase IC50 (half-maximal inhibitory concentration)” value in data set [1] is given as “Inactive”. Further, the “CYP1A2 IC50 (half-maximal inhibitory concentration)” value at human CYP1A2 [5] was “Inactive”. The IC50 turned out to be 3.35 µM against human CYP2C9 [3] (setting [9]), 0.17 µM against human CYP2C19 [4] (setting [10]), 14 µM against human CYP2D6 (setting [11]) and 2.61 µM against CYP3A4 (setting [12]).

For the compound `Cc1ccnc2ccccc12` [Lepidine], the “CYP2C9 AC50” value at human CYP2C9 [6] is listed as “Inconclusive activator”. The “CYP2C19 AC50 (half-maximal activity concentration)” value on human CYP2C19 [7] is on record as “Inconclusive”. For the same compound, the values for the AC50 on human CYP1A2 [2], at human CYP2D6 and on CYP3A4 were 38.4 µM, 61.3 µM and 31.1 µM, respectively.

Turning to `COc1cccc(C(=O)NN(C(=O)c2cc(C)cc(C)c2)C(C)(C)C)c1C` [Methoxyfenozide], the “Luciferase IC50 (half-maximal inhibitory concentration)” value in data set [1] is reported as “Inactive”. In addition, the “CYP1A2 IC50 (half-maximal inhibitory concentration)” value on human CYP1A2 [5] is “Inactive”. For the same compound, the IC50 came out at 18.1 µM against human CYP2C9 [3] (setting [9]), 3.43 µM against human CYP2C19 [4] (setting [10]), 44 µM against human CYP2D6 (setting [11]) and 0.74 µM at CYP3A4 (setting [12]).

As to `CCCSP(=O)(OCC)Oc1ccc(Br)cc1Cl` (stereo not drawn) [Profenofos], the half-maximal activity concentration (AC50) came to 4.52 µM on human CYP1A2 [2] (setting [13]); 9.76 µM at human CYP2C9 [3]; 4.22 µM on human CYP2C19 [4]; 13.8 µM on human CYP2D6 (setting [14]); 3.25 µM on CYP3A4 (setting [15]).

With `CC(=O)[C@H]1CC[C@H]2[C@@H]3CCC4=CC(=O)CC[C@]4(C)[C@H]3CC[C@]12C` [Progesterone], the AC50 amounted to 29.9 µM on human CYP1A2 [2] (setting [13]); 26.5 µM at human CYP2C9 [3]; 4.06 µM on human CYP2C19 [4]; 47.7 µM on human CYP2D6 (setting [14]); 2.35 µM at CYP3A4 (setting [15]).

For the compound `CNC(=O)Oc1cc(C)cc(C(C)C)c1` [Promecarb], the “CYP2C9 AC50” value on human CYP2C9 [6] was “Inactive”. Also, the AC50 was determined as 26.9 µM at human CYP1A2 [2] (setting [13]), 42.2 µM at human CYP2C19 [4], 58.1 µM at human CYP2D6 (setting [14]) and 25.3 µM at CYP3A4 (setting [15]).

With `O=C(CCN1CCC(c2ccccc2)C1)c1ccc2c(c1)OCCO2` (stereo not drawn) [Proroxan], at human CYP2C9 [6], the “CYP2C9 AC50” value is “Inconclusive inhibitor”. Also, the AC50 on human CYP1A2 [2] (setting [13]) was determined as 32.3 µM; on human CYP2C19 [4], 39.1 µM; on human CYP2D6 (setting [14]), 2.28 µM; on CYP3A4 (setting [15]) it was 28.8 µM.

Turning to `CCOC(=O)C(C)Oc1ccc(Oc2cnc3cc(Cl)ccc3n2)cc1` (stereo not drawn) [Quizalofop-ethyl], the AC50 at human CYP1A2 [2] (setting [13]) was found to be 36.3 µM; on human CYP2C9 [3], 17.4 µM; on human CYP2C19 [4], 36.2 µM; at human CYP2D6 (setting [14]), 42.5 µM; on CYP3A4 (setting [15]), 12.3 µM.

For `COP(=O)(OC)OC(=CCl)c1cc(Cl)c(Cl)cc1Cl` [Tetrachlorovinphos], the AC50 amounted to 3 µM at human CYP1A2 [2] (setting [13]); 29 µM at human CYP2C9 [3]; 6.81 µM on human CYP2C19 [4]; 33.7 µM on human CYP2D6 (setting [14]); 3.72 µM at CYP3A4 (setting [15]).

In the case of `Cc1ccccc1OP(=O)(Oc1ccccc1C)Oc1ccccc1C` [Tri-o-cresyl phosphate], the AC50 is 32 µM on human CYP1A2 [2] (setting [13]); 4.9 µM on human CYP2C9 [3]; 1.3 µM at human CYP2C19 [4]; 43.3 µM at human CYP2D6 (setting [14]); 2.11 µM at CYP3A4 (setting [15]).

`COP(=O)(OC)O/C(=C\Cl)c1cc(Cl)c(Cl)cc1Cl` [Z-Tetrachlorvinphos]: the AC50 on human CYP1A2 [2] (setting [13]) was found to be 2.28 µM; at human CYP2C9 [3] it was 38.8 µM; on human CYP2C19 [4], 5.82 µM; at human CYP2D6 (setting [14]) it was 56.6 µM; on CYP3A4 (setting [15]), 2.49 µM.
